One test deals with X4 strain (UG024). In words: HIV RT activity in MDM infected with X4 strain. The class given is cell-based. How it is done: (§1) Based upon their differential use of the major HIV co-receptors, HIV isolates have been referred to as R5, X4 or R5X4 strains, respectively (29). The M-tropic (macrophage-tropic) R5 prototype strains (Bal and ADA), dual tropic strain (89.6) and X4 primary isolate (UG024), were obtained from the NIH AIDS Reagent Program. Primary M-tropic isolates (BL-6 and CSF-6) were isolated from the blood and cerebrospinal fluid cells, respectively, of a subject with AIDS.
(§2) The cells were also incubated with SP and/or anti-SP antibody. In this case, SP was incubated with (1:1000 dilution in 10% FCS DMEM) or without anti-SP antibody at room temperature for 10 min and then the mixture was added to the cell cultures for 2 h. When the cells were treated with the combination of CP-96,345 and SP, or CP-96,345, SP and anti-SP antibody, CP-96,345 was incubated with the cell culture for 10 min and then SP was added to the MDM or CP-96,345, SP and anti-SP (1:1000 in 10% FCS DMEM) were incubated for 10 min at room temperature and the mixture was incubated with the MDM for 2 h before infection with HIV. Untreated MDM served as controls. The cells were treated prior to, during, and throughout the infection. […]

For the next test, the system named is R5X4 strain (89.6). As to the kind of experiment: HIV RT activity in MDM infected with R5X4 strain. The class given is cell-based. How it is done: as §1, §2
In test [1] the test system is R5 strains (Bal, ADA, CSF-6 and BL-6). As to the kind of experiment: HIV RT activity in MDM infected with R5 strains. Type of test: cell-based. How it is done: as §1, §2
The next test concerns ADA Env-pseudotyped HIV. As to the kind of experiment: Pseudotype reporter virus entry assay, ADA Env. The class given is cell-based. How it is done: (§3) Pseudotype reporter virus entry assay: Recombinant luciferase-encoding HIV virions pseudotyped with Env from the M-tropic ADA (CCR5-dependent) and amphitropic murine leukemia virus (MLV) (CCR5-independent) were used to study HIV infection of MDM incubated with or without CP-96,345 or R-113281. The Env-deleted luciferase reporter plasmid PNL-Luc-E-R+ (kindly provided by N. Landau) was cotransfected into 293T cells along with plasmids encoding the ADA or MLV Env genes as previously described (31). Supernatants were collected 48 h later, assayed for p24^Gag antigen content, and frozen at −80° C. MDM (2.5×10^5 cells/well, in 48-well plates) were incubated overnight with or without CP-96,345 or R-113281 and then infected using 20 ng of p24^Gag antigen equivalent of each pseudotype HIV per well, in the presence of polybrene (7.5 μg/ml). At 72 h postinfection, the cells were lysed in 150 μl of 0.5% Triton-X-100 in PBS. Lysate (50 μl) was mixed with an equal volume of luciferase substrate (Promega, […].) and luciferase activity was determined in a microtiter plate luminometer (Dynex Technologies, Chantilly, Va.). The results were expressed as relative light units (RLU) in CP-96,345-treated or R-113281-treated and infected MDM as a percentage of that in untreated and infected MDM.

Another test has as its system MLV Env-pseudotyped HIV. As to the kind of experiment: Pseudotype reporter virus entry assay, MLV Env. Type of test: cell-based, murine leukemia virus. The protocol: as §3
A further test relates to HIV Bal strain. As to the kind of experiment: HIV RT activity in HIV Bal strain-infected MDM. The class given is cell-based, HIV-1. The settings on record: for RT activity during HIV Bal infection of MDM: 10^−7−10^−6M (FIG. 18). The protocol: The cells were also incubated with SP and/or anti-SP antibody. In this case, SP was incubated with (1:1000 dilution in 10% FCS DMEM) or without anti-SP antibody at room temperature for 10 min and then the mixture was added to the cell cultures for 2 h. When the cells were treated with the combination of CP-96,345 and SP, or CP-96,345, SP and anti-SP antibody, CP-96,345 was incubated with the cell culture for 10 min and then SP was added to the MDM or CP-96,345, SP and anti-SP (1:1000 in 10% FCS DMEM) were incubated for 10 min at room temperature and the mixture was incubated with the MDM for 2 h before infection with HIV. Untreated MDM served as controls. The cells were treated prior to, during, and throughout the infection.
HIV Infection: After 2 h incubation with or without the reagents described above, the cells were infected with equal amounts of cell-free HIV based on p24 antigen content (20 ng/10^6 cells) overnight, and then washed to remove unbound virus. Fresh media containing SP and/or CP-96,345 or anti-SP antibody were added to the MDM as described above. The culture media and the reagents were replaced twice weekly. The culture supernatants were harvested for HIV reverse transcriptase (RT) activity determinations. After HIV infection, the MDM were incubated for 8 to 12 days. At the termination of the experiments, cellular RNA was extracted for assessment of HIV gag gene expression using RT-PCR or real time RT-PCR assays.
The HIV RT activity assay was carried out based on the technique of Willey et al. (30) with modification (22).

Another test has as its system HIV LTR promoter. As to the kind of experiment: HIV LTR-driven CAT activity assay in U38 cells. The class given is cell-based. From the text: ACH-2 and U38 cell lines (25, 26) were obtained from the NIH AIDS Reagent Program. DNA extracted from ACH-2 cells was used as a positive standard for HIV DNA PCR as previously reported (27). The U38 cell line contains stably integrated, silent copies of the HIV LTR (long terminal repeat) promoter linked to a CAT (chloramphenicol acetyltransferase) gene and was used to study the effect of SP and/or CP-96,345 and R-113281 on the activation of HIV LTR promoter.
Chloramphenicol acetyltransferase (CAT) activity assay:U38 cells (2×10^6 cells) were incubated with different concentrations of SP and/or CP-96,345 or R-113281 for 48 h. Untreated U38 cells were used as a background control. Cellular proteins were extracted using 1× Reporter Lysis Bufffer (Promega Corp., Madison, Wis.). The lysates were incubated with a mixture containing 0.15 μCi of ^14C-labeled chloramphenicol (DuPont Inc., Boston, Mass.) and 200 μg/ml of n-Butyryl CoA (Promega Corp., Madison, Wis.) in a total volume of 125 μl at 37° C. for 3 h. The acetylated forms of chloramphenicol were extracted with xylene (Aldrich Chemical Company, Milwaukee, Wis.). CAT activity of each sample was quantified using a liquid-scintillation counter (Packard Instrument Company, Downers Grove, Ill.). The results were expressed as the ratio of CAT activity (CPM) of the SP and/or CP-96,345-treated or R-113281-treated U38 to that of the background control.

For a further test, the system named is CCR5. As to the kind of experiment: Macrophage receptor expression by flow cytometry. The class given is cell-based, human. The protocol:
The cells were removed from the culture plate and then resuspended in 100 μl of phosphate-buffered saline (PBS). After incubation with 20 μl of either anti-CCR5-FITC or anti-CXCR4-FITC or anti-CD4-FITC or anti-CD14-FITC for 45 min at 4° C., the cells were washed twice with PBS and fixed with 1% paraformaldehyde in PBS. Fluorescein-conjugated control antibodies were isotype-matched IgG. Fluorescence was analyzed on an EPICS-Elite flow cytometer (Beckman-Coulter Electronics, Hialeah, Fla.).

[2] abbreviates: CP-96,345 10^−7M, 8 days after infection (FIG. 6).
The mark [3] stands for this setting: CP-96,345 10^−8 and 10^−7M overnight (FIG. 10).
The mark [4] stands for this setting: R-113281 10^−6 M, 8 days after infection (FIG. 14).
Where [5] appears, read: R-113281 10^−7 and 10^−6 overnight (FIG. 13).

As to `COc1ccccc1CN[C@H]1C2CCN(CC2)[C@H]1C(c1ccccc1)c1ccccc1` [CP-96,345, 2S, 3S)-cis-2-(diphenylmethyl)-N-[(2-methoxyphenyl)-methyl]-1-azabicyclo[[2.2.2]octan-3-amine], the “replication of X4 strain UG024 (RT activity)” value in the test on X4 strain (UG024) (setting [2]) is listed as “not affected”. In addition, the “replication of R5X4 strain 89.6 (RT activity)” value in the test with R5X4 strain (89.6) (setting [2]) is on record as “inhibited to a lesser extent”. Further, the “replication of R5 strains (RT activity)” value in test [1] (setting [2]) is listed as “inhibited”. The “M-tropic ADA Env-pseudotyped HIV infection of MDM (luciferase activity)” value with ADA Env-pseudotyped HIV (setting [3]) is given as “inhibited”. The “MLV Env-pseudotyped HIV infection of MDM (luciferase activity)” value in the test on MLV Env-pseudotyped HIV (setting [3]) is recorded as “failed to block”. Also, in the test on HIV Bal strain (10^−7M, 8 days after infection (FIG. 4)), the “viral replication by HIV RT activity vs HIV infection control” value is “inhibited”. Further, in the test with HIV Bal strain, the “RT activity during HIV Bal infection of MDM” value is on record as “inhibitory effects”. Further, the “HIV replication relative to HIV infection control” value in the test on HIV Bal strain (CP-96,345 10^−6M and/or anti-SP antibody 1:1000, 12 days (FIG. 5)) is on record as “down-regulated HIV replication to a level that was even lower than that of the HIV infection control”. In addition, the inhibition at 1 µM in the test on HIV Bal strain (Human immunodeficiency virus 1, BAL, 192 h, 10^−6M, day 8 after HIV infection (FIG. 1B)) stood at 54%. Moreover, in the test with HIV Bal strain (Human immunodeficiency virus 1, BAL, 192 h, 10^−7M, day 8 after HIV infection (FIG. 1B)), the inhibition at 0.1 µM stood at 43%. Besides, the inhibition at 0.01 µM in the test with HIV Bal strain (Human immunodeficiency virus 1, BAL, 192 h, 10^−8M, day 8 after HIV infection (FIG. 1B)) was 1%. In addition, the “effect on SP-enhanced HIV replication in MDM (RT activity and gag mRNA)” value with HIV Bal strain (SP 10^−6M, CP-96,345 10^−6M, anti-SP antibody 1:1000, 12 days (FIG. 5)) was “abrogated”. Further, in the test with HIV LTR promoter (SP 10^−8M, CP-96,345 10^−6M, 48 h (FIG. 7)), the “effect on SP activation of HIV LTR-driven CAT activity” value is “abrogated”. Further, the “CCR5 receptor expression on MDM (percentage positive cells)” value with CCR5 (overnight/24 h, among CD4, CCR5, CXCR4 and CD14 only CCR5 changed (FIG. 8)) is listed as “down-regulated”.

As to `COc1cc(C(=O)N2CCO[C@](CCN3CCC4(CC3)c3ccccc3C[S@+]4[O-])(c3ccc(Cl)c(Cl)c3)C2)cc(OC)c1OC.Cl` [R-113281], the “replication of X4 strain (RT activity)” value in the test with X4 strain (UG024) (setting [4]) is “not affected”. The “replication of R5X4 strain (RT activity)” value in the test on R5X4 strain (89.6) (setting [4]) was “inhibited to a lesser extent”. Further, the “replication of R5 strains (RT activity)” value in test [1] (setting [4]) is given as “inhibited”. Moreover, the “M-tropic ADA Env-pseudotyped HIV infection of MDM (luciferase activity)” value with ADA Env-pseudotyped HIV (setting [5]) was “inhibited”. Also, the “MLV-Env pseudotyped HIV infection of MDM (luciferase activity)” value in the test with MLV Env-pseudotyped HIV (setting [5]) is reported as “failed to block”. In the test on HIV Bal strain, the “RT activity during HIV Bal infection of MDM” value is recorded as “inhibitory effects”. Besides, in the test with HIV Bal strain (day 8 post-infection, indicated concentrations (FIG. 12)), the “HIV RT activity in Bal-infected MDM” value is on record as “significantly reduced”. Also, the “effect on SP activation of HIV LTR-driven CAT activity” value in the test with HIV LTR promoter (SP (10^−8M), R-113281 10^−6M, 48 hours (FIG. 16)) is recorded as “abrogated”. The “CCR5 protein expression (percentage CCR5 positive cells, flow cytometry)” value in the test with CCR5 (R-113281 10^−6M, 24 hours (FIG. 15B)) is “inhibited”.

The values are drawn from patent US20020094524A1, “Compositions and methods for inhibiting HIV infection” (priority 2000, published 2002).
